We go through 94 molecules from PubChem BioAssay AID624404 (Broad Institute, 2012).

Results filed as inconclusive are left out. Active and inactive are the calls of the source.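 How the source made its calls: active means luciferase signal rise whose fitted curve crosses a set activity limit at or below the top valid tested dose; inconclusive means flat fit with 30 to 70% rise, or poor fit; inactive means signal falling, flat within 30%, or crossing above top dose.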 A value given as a limit tells only on which side of the number the result lay.

The assay relates to D54 LucT luciferase reporter counterscreen, luminescence, 24 h. Kind of assay: luciferase activators in glycosylation-insensitive reporter cells, dose response, counter-screen for N-linked glycosylation inhibitor project, D54 LucT cells, luminescence, cherry pick (AID 624404).
Take `O=C(NC1CCCCCC1)c1c2c(nc3ccccc13)CCN(Cc1ccccc1)C2`: the AC35 was 3450 nM.
`COC(=O)c1cn(C(=O)c2cccc3ccccc23)c2ccccc12`: the AC35 is 284 nM.
For the molecule `O=C(Nc1cccc(-c2cn3ccccc3n2)c1)c1cccc(Cl)c1`, the AC35 was 2150 nM.
For `COc1ccc([C@@H]2[C@@H]3C(=O)N(C(C)(C)C)C(=O)[C@@H]3[C@]3(Cc4ccccc4)C(=O)N(c4cccc(C)c4)C(=O)N23)cc1`, the AC35 is 843 nM.
Regarding `Cc1ccc(N2C(=O)Nc3ccccc3C2(O)C(=O)N2CCN(c3ccccn3)CC2)cc1C` (centres undefined), the AC35 was 375 nM.
On to `Cc1cc(NCCCn2ccnc2)n2nc(C)c(-c3ccccc3)c2n1`, for which the AC35 is 2290 nM.
In the case of `C/C(=N\NC(=O)c1c(Cl)c(C)nn1C)c1ccc(NC(=O)C2CCC2)cc1`, the AC35 was 475 nM.
The figure for `COc1cc(NC(C(=O)Nc2cccc(C(C)=O)c2)c2ccccc2)cc(OC)c1OC` (centres undefined) is 5.56 nM.
As to `COc1ccc(C(=O)/C=C/c2ccc(OC)c(O)c2)c(F)c1`, the AC35 was 219 nM.
In the case of `CCCCCC(O)C=CC1C(O)CC(O)C1CC=CCCCC(=O)O` (centres undefined), the AC35 was 3.82 nM.
The figure for `COc1cc2c(cc1OC)C(c1cccs1)N(C(=O)c1ccncc1)CC2` (centres undefined) is 1700 nM.
Regarding `CN(C)CCNc1cccc2sc3ccc(O)cc3c(=O)c12`, the AC35 is 1980 nM.
As for `O=C1[C@H]2[C@@H](c3ccc(F)cc3)N3C(=O)N(c4cccc(Cl)c4)C(=O)[C@@]3(Cc3ccccc3)[C@H]2C(=O)N1C1CCCCC1`, the AC35 is 1060 nM.
In the case of `COc1ccc2c(c1)OC[C@H]1[C@H]2N2C(=O)c3cc(OC)ccc3NC(=O)[C@@]2(C)[C@H]1c1ccccc1` it was 1080 nM; in that of `CC(C)[n+]1ccn(C2=C([O-])c3ccccc3C(=O)/C2=N\S(=O)(=O)c2ccccc2)c1`, 2370 nM.
`COc1cccc(OCc2nc3ncc(Br)cc3[nH]2)c1`: the AC35 was 2480 nM.
In the case of `COc1cccc(C2=CC(c3cccc(OC)c3OC)n3nnnc3N2)c1` (centres undefined) it was 765 nM.
Take `O=C(NCCCN1CCOCC1)c1cc(-c2cccs2)on1`: the AC35 is 3630 nM.
For the molecule `CCOC(=O)n1c(=O)n(Cc2ccc(OC)cc2)c2ccccc21`, the AC35 was > 19500 nM (inactive).
For the molecule `O=C(c1cccs1)N1CCC(c2nc3c(nnn3Cc3cccc(Cl)c3)c(=O)[nH]2)CC1`, the AC35 is 174 nM.
On to `CCCC(=O)Nc1nc2ccc(NC(=O)c3c(F)c(F)c(OC)c(F)c3F)cc2s1`, for which the AC35 is 2270 nM.
With `COc1ccc(/C=N/NC(=O)c2cccc(NC(=O)c3ccccc3Cl)c2)cc1`, the AC35 is 495 nM.
The figure for `O=C(c1ncn(Cc2ccccc2)c1C(=O)N1CCN(c2ccccc2)CC1)N1CCN(c2ccccc2)CC1` is 1230 nM; for `COc1cc2c(cc1OC)C(c1cccs1)N(C(=S)NC(C)C)CC2` (centres undefined) it is 85.1 nM; for `CCCOc1ccc2ccccc2c1/C=N/n1c(C)nnc1-n1nc(C)cc1C` it is 18.4 nM.
The figure for `CC(=O)Nc1ccc(C(=O)N/N=C/c2ccccc2OCc2ccccc2)cc1` is 4360 nM; for `Cc1cc(C)c2c(N)c3cccc(C)c3nc2n1` it is 5820 nM; for `COc1ccc(/C=C/C(=O)c2ccc(Cl)s2)cc1O` it is 6020 nM.
Consider `O=C1[C@H]2[C@@H](c3ccc(F)cc3)N3C(=O)N(c4cccc(Br)c4)C(=O)[C@@]3(Cc3ccccc3)[C@H]2C(=O)N1C1CCCCC1`, for which the AC35 is 480 nM.
In the case of `Oc1[nH]c(N=C2N=c3ccccc3=N2)c2ccccc12` it was 17.2 nM; in that of `Cn1c(=O)cc(OCCCC(=O)NC2CCCC2)c2ccccc21`, 3240 nM.
The figure for `CCOC(=O)N1CCN(C(=O)c2cc(-c3ccncc3)nc3ccccc23)CC1` is 5630 nM.
As for `Cc1ccc(/C=N/NC(=O)c2sccc2OCc2ccc(F)cc2)cc1`, the AC35 was 1260 nM.
In the case of `O=C1OCC2=C1C(c1ccc3c(c1)OCO3)c1cc3c(cc1O2)OCO3` (centres undefined), the AC35 is 352 nM.
The figure for `COc1ccc(NC2=C(C)C(=O)CC2)cc1` is 380 nM.
Turning to `CC(C)(C)c1ccc(OCC(=O)Nc2ccncc2)c(Br)c1`, the AC35 was 35.6 nM.
As for `O=C(/C=C/c1cccc(Br)c1)c1ccc2c(c1)OCO2`, the AC35 was 951 nM.
As to `Cc1ccc(C)n1-c1ccc(C(=O)/C=C/N(C)C)cc1`, the AC35 is 1050 nM.
Turning to `O=C(CCl)Nc1cccc(S(=O)(=O)NC2=NCCC2)c1`, the AC35 is 1620 nM.
For `CCNc1oc(/C=C/c2ccc(OCC)cc2)nc1C#N`, the AC35 is 940 nM.
The figure for `C[C@@H](NC(=O)c1nc[nH]c1C(=O)N1CCN(c2ccccc2)CC1)c1ccccc1` is 1830 nM.
Turning to `COc1cccc(/C=N/NC(=O)c2cc3c(OC)c(OC)ccc3[nH]2)c1OC`, the AC35 was 4940 nM.
In the case of `COc1cc2c(cc1OC)C(c1ccccc1)N(C(=O)c1cccc(S(C)(=O)=O)c1)CC2` (centres undefined), the AC35 was 212 nM.
For the molecule `COc1ccc(N/C=C/C(=O)c2cc(OC)c(OC)c(OC)c2)cc1`, the AC35 is 263 nM.
Consider `COc1cc(F)ccc1-c1csc(C(NC(C)=O)c2cccc(F)c2)n1` (centres undefined), for which the AC35 was 93.1 nM.
As to `Cc1ccc(S(=O)(=O)[N-]c2nc3ccccc3nc2-n2cc[n+](Cc3ccccc3)c2)cc1`, the AC35 was 33.9 nM.
As for `CC(=O)c1c(C)[nH]c(C(=O)Nc2nccs2)c1C`, the AC35 is 379 nM.
Turning to `O=C(NC1CCCCC1)c1ccc([N+](=O)[O-])o1`, the AC35 was 1370 nM.
In the case of `O=C(N/N=C/c1ccc(Cl)cc1)c1sccc1OCc1ccc(F)cc1`, the AC35 was 514 nM.
For the molecule `Nc1c(C(=O)c2ccccc2)sc2nsc(SCCN3CCOCC3)c12`, the AC35 was 57.8 nM.
In the case of `N#Cc1c(NC(=O)/C=C/c2ccco2)sc2c1CCCC2` it was 115 nM; in that of `COc1cc2c(cc1OC)C(=O)N1[C@H]3c4cc(C)ccc4OC[C@@H]3[C@H](c3ccccc3)[C@]1(C)C(=O)N2`, 131 nM; in that of `CC(C)CCNC(=O)CCCOc1cc(=O)n(C)c2ccccc12`, 2260 nM.
In the case of `O=C(Nc1ccc2oc(-c3cccnc3)nc2c1)c1ccc([N+](=O)[O-])o1`, the AC35 is 1460 nM.
On to `CC(=O)Nc1ccc(/C=C/C(=O)c2ccc3c(c2)OCCO3)cc1`, for which the AC35 is 2880 nM.
The figure for `CCOc1ccc(N2C(=O)Nc3ccccc3C2(O)C(=O)N2CCN(c3ccccn3)CC2)cc1` (centres undefined) is 1200 nM.
In the case of `CC(Nc1nc(-c2ccccc2O)nc2ccccc12)c1ccccc1` (centres undefined) it was 39.5 nM.
Turning to `Cc1nnc2c3ccccc3c(-c3ccccc3)nn12`, the AC35 is 221 nM.
For the molecule `COc1ccc(-n2c(=S)[nH]c3cc(C(=O)Nc4ccc(F)cc4)ccc3c2=O)c(OC)c1`, the AC35 is 1470 nM.
In the case of `COCCCNC(=O)c1sc2ncn(CC(=O)Nc3ccc(C)c(Cl)c3)c(=O)c2c1C` it was 2510 nM.
In the case of `Cc1ccc2nsnc2c1NC(=O)c1ccc([N+](=O)[O-])o1`, the AC35 is 571 nM.
As for `COc1cc(C(=O)OCCCN2CCCN(CCCOC(=O)c3cc(OC)c(OC)c(OC)c3)CC2)cc(OC)c1OC`, the AC35 is 2190 nM.
With `COc1ccc2[nH]c(C(=O)N3CCN(Cc4ccccc4)CC3)cc2c1OC`, the AC35 was 2980 nM.
On to `O=C(c1ccc(Cl)c(S(=O)(=O)N2CCCCC2)c1)N1CCN(Cc2ccccc2)CC1`, for which the AC35 was 1920 nM.
Take `O=C(NCCN1C(=O)S/C(=C\c2ccc(Cl)cc2Cl)C1=O)C1=COCCO1`: the AC35 is 3410 nM.
With `COc1ccccc1N1CC(O)=C(c2nc3ccccc3c(=O)[nH]2)C1=N`, the AC35 is 5720 nM.
Take `Nc1nc(Nc2ccccc2)sc1C(=O)c1ccccc1`: the AC35 is 272 nM.
For the molecule `Cc1ccc(C(=O)N2CCC(C(=O)Nc3cccc([N+](=O)[O-])c3)CC2)cc1`, the AC35 is 1700 nM.
As to `CCOc1cc(-c2c(C#N)c(N)nc3c2CCc2ccccc2-3)ccc1O`, the AC35 is 3850 nM.
Regarding `O=C(N/N=C/c1c(-c2ccccc2)[nH]c2ccccc12)c1cccnc1`, the AC35 is 1280 nM.
The figure for `Cc1cccn2c(=O)c3cc(C(=O)N4CCC5(CC4)OCCO5)n(C)c3nc12` is 310 nM; for `Cc1ccc2c(c1)cc(CN(C(=O)N1CCOCC1)C1CCCC1)c1nnnn12` it is 2460 nM.
Regarding `Cc1nnc2c(NC3CCCCC3)nc3ccccc3n12`, the AC35 is 3510 nM.
For the molecule `Cc1ccc2c(c1)C(=O)N1[C@H]3c4cc(C)ccc4OC[C@@H]3[C@H](c3ccccc3)[C@]1(C)C(=O)N2`, the AC35 is 499 nM.
On to `CCCNc1nc2ccccc2n2c(C)nnc12`, for which the AC35 is 19.1 nM.
On to `O=C(/C=C/c1cccc([N+](=O)[O-])c1)c1ccc2c(c1)OCCO2`, for which the AC35 was 247 nM.
For `COc1cc2c(cc1OC)C(c1cccs1)N(C(=O)c1cccnc1)CC2` (centres undefined), the AC35 is 438 nM.
Consider `COc1cc(OC)cc(C(=O)NCC(=O)Nc2ccc(-c3ccccc3)cc2)c1`, for which the AC35 was 501 nM.
In the case of `CC(=O)c1ccc(OCC(O)CN2CCN(CCN3C(=O)c4cccc5cccc(c45)C3=O)CC2)cc1` (centres undefined) it was 4420 nM; in that of `CCn1c(=S)[nH]c2cc(S(=O)(=O)N3CCCCC3)ccc21`, 1250 nM.
In the case of `Cc1ccc2nc(-c3ccncc3)cc(C(=O)Nc3ccncc3)c2c1`, the AC35 is 64.6 nM.
`COc1cccc(-c2nn(C)c3sc(C(=O)NCc4ccco4)cc23)c1`: the AC35 was 3350 nM.
Turning to `O=C1c2cccc3c([N+](=O)[O-])ccc(c23)C(=O)N1CC1CCCO1` (centres undefined), the AC35 is 315 nM.
With `C/C(=N\O)C(=O)C(CN1CCCCC1)CN1CCCCC1`, the AC35 is 1210 nM.
For the molecule `Oc1ccc(Nc2nc(N3CCCC3)c3ccccc3n2)cc1`, the AC35 was 150 nM.
The figure for `COc1ccc(-n2c(=S)[nH]c3cc(C(=O)Nc4ccc(C)c(F)c4)ccc3c2=O)c(OC)c1` is 245 nM; for `COC(=O)c1ccc2c(=O)n(Cc3ccc(C(=O)NC(C)C)cc3)c(=S)[nH]c2c1` it is 4280 nM; for `Cn1c(=O)n(C)c2cc(NS(=O)(=O)c3ccc4c(c3)CCCC4)ccc21` it is 416 nM.
In the case of `COc1cc(F)ccc1-c1csc(C(NC(C)=O)c2ccc(F)c(F)c2)n1` (centres undefined), the AC35 is 270 nM.
Consider `CCN(CC)CCNC(=O)c1cc2c(=O)n(C)c3ccccc3c2s1`, for which the AC35 is 3550 nM.
Consider `CC(Nc1nc(-c2cccnc2)nc2ccccc12)c1ccc(F)cc1` (centres undefined), for which the AC35 is 3450 nM.
For `CC(C)(C)c1ccc(OCc2ccc(C(=O)N3CCOCC3)o2)cc1`, the AC35 was 1460 nM.
The figure for `CCN1C(=O)c2cccc3c(S(=O)(=O)Nc4ccccn4)ccc1c23` is 1860 nM; for `CC(C)(C)S(=O)(=O)N1C[C@H]2CC/C=C\C/C(c3ccccc3)=C\2[C@@H]1CCO` it is 536 nM.
